In patent US5665745A, “Heterocyclic compounds and their preparation and use” (Eli Lilly and Company, priority 1995, dated 1997):
Where two headings read alike, the source gives them in different places.

Experiments:
[1] = test system: M1 -sites; conditions: background statement; cited from earlier work
[2] = test system: M2 -sites; conditions: background statement; cited from earlier work
[3] = molecular target: muscarinic receptor in the CNS; conditions: cited from earlier work
[4] = molecular target: T1, muscarinic receptors (M1 -site, pirenzepine sensitive site) (Rattus norvegicus, UniProt P08482); experiment: inhibition of ^3 HPRZ (pirenzepine, [N-methyl-^3 H]) binding to rat cerebral cortex membranes; set-up: species or system rat (male Wistar
T1 construct: from tissue; host or cells: cerebral cortex membranes of male Wistar rats
T1 sequence (P08482 1-460): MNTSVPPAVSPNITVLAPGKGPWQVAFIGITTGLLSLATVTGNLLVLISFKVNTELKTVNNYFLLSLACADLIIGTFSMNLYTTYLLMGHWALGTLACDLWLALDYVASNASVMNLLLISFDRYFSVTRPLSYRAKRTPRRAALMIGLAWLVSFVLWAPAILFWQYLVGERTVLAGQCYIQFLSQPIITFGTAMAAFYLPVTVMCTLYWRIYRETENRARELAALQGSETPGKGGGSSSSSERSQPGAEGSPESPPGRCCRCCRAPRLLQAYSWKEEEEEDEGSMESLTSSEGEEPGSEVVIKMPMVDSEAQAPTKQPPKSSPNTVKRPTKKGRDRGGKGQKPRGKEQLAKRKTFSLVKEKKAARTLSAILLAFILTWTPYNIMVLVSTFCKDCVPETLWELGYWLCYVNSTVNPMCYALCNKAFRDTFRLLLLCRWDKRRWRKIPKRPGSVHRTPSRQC
Outline: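 Male Wistar rat cortex membranes in 20 mM Hepes pH 7.4 were incubated with 1.0 nM (final) [3H]pirenzepine for 60 min at 20° C; nonspecific binding was defined with 1 μg/mL atropine. Filtration and scintillation counting were used, and IC50 was calculated from a single concentration assuming mass-action kinetics.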

[5] = molecular target: muscarinic acetylcholine receptors; experiment: inhibition of specific binding of ^3 H-Oxotremorine-M (^3 H-Oxo); set-up: species or system rat (male Wistar; conditions: ^3 H-Oxotremorine 1.0 nM, rat cortex, 30 min. at 25° C.
Outline: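 Rat cortex membranes (male Wistar) in 20 mM Hepes pH 7.4 incubated with 1.0 nM ^3H-Oxotremorine-M (final) and test compound for 30 min at 25 °C; arecoline defines non-specific binding. Bound radioactivity by filtration and scintillation counting; IC50 (nM) from a single concentration via Co/Cx mass-action formula, reflecting high- and medium-affinity sites.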

[6] = ^3 HPRZ 1.0 nM, rat cortex, 60 min. at 20° C., read-out: ^3 HPRZ IC50 (head from b208 on: Pir IC-50)

| SMILES | IC50 [4, 6] | IC50 [5] | IC50 [4] | further results |
| --- | --- | --- | --- | --- |
| CN1CCN(CC(=O)N2c3ccccc3C(=O)Nc3cccnc32)CC1 [pirenzepine] |  |  |  | selectivity for muscarinic receptor subtype [1]: selective for M1 -sites; interaction with M2 -sites [2]: also interact with M2 -sites |
| C[N+](C)(C)CC#CCN1CCCC1=O [^3 H-Oxo] |  |  |  | Kd ([3]; first of three sites labeled (high affinity)): 1.8 nM; Kd ([3]; second of three sites labeled (medium affinity)): 20 nM; Kd ([3]; third of three sites labeled, read-out: affinity): 3000 nM |
| c1ccc2c(OCCOc3nsnc3OC3CN4CCC3CC4)cccc2c1 (racemic) [Compound 127, (±)-3-(2-[1-Napthyloxy]ethoxy)-4-(1-azabicyclo [2.2.2]octyl-3-oxy)-1,2,5-thiadiazole] | 373 nM | 61 nM |  |  |
| C1CC(COc2nsnc2OC2CN3CCC2CC3)C1 (racemic) [Compound 124, (±)-3-(Cyclobutylmethoxy)-4-(1-azabicyclo[2.2.2]octyl-3-oxy)-1,2,5-thiadiazole] |  | 5.8 nM | 54 nM |  |
| c1ccc(CCCCSc2nsnc2OC2CN3CCC2CC3)cc1 (racemic) [Compound 148, (±)-3-(4-Phenylbutylthio)-4-(1-azabicyclo[2.2.2]octyl-3-oxy)-1,2,5-thiadiazole] |  | 8 nM | 25 nM |  |
| O=C(CCSc1nsnc1OC1CN2CCC1CC2)c1ccc(F)cc1 (racemic) [Compound 150, (±)-3-(3-[4-Fluorophenyl]propan-3-onethio)-4-(1-azabicyclo[2,2.2]octyl-3-oxy)-1,2,5-thiadiazole] |  | 17 nM | 36 nM |  |
| C1CCC(CCCCOc2nsnc2O[C@@H]2CN3CCC[C@H]2C3)CC1 (relative stereo) [Compound 202, (±)-endo-3-(4-Cyclohexylbutoxy)-4-(1-azabicyclo[3.2.1]octyl-6-oxy)-1,2,5-thiadiazole] | 31 nM | 13 nM |  |  |
| CCCCSc1nsnc1OC1CCNC1 (racemic) [Compound 53, (±)-3-Butylthio-4-(3-pyrrolidnyloxy)-1,2,5-thiadiazole] | 35 nM | 24 nM |  |  |
| COc1ccc(CCCOc2nsnc2OC2CN3CCC2CC3)cn1 (racemic) [Compound 119, (±)-3-(3-[2-Methoxy-5-pyridyl]propyloxy)-4-(1-azabicyclo[2.2.2]octyl-3-oxy)-1,2,5-thiadiazole] | 124 nM | 17 nM |  |  |
| CCCCOc1nsnc1OC1CN2CCC1CC2 (racemic) [Compound 8, (±)-3-Butyloxy-4-(1-azabicyclo[2.2.2]octyl-3-oxy)-1,2,5-thiadiazole] |  | 3.1 nM | 7.4 nM |  |
